The text below walks through data of patent publication US11236086B2, “Substituted pyrrolopyridines as inhibitors of activin receptor-like kinase” (BLUEPRINT MEDICINES CORPORATION, priority 2017, dated 2022).

The assay concerns the target T1, ALK2R206H (mutant ALK2, N-terminally tagged with GST) (Homo sapiens, UniProt Q04771, R206H).
T1 construct: purchased Carna Bioscience or ThermoFisher 09-148 or PV6232
T1 sequence (Q04771 21-509 R206H): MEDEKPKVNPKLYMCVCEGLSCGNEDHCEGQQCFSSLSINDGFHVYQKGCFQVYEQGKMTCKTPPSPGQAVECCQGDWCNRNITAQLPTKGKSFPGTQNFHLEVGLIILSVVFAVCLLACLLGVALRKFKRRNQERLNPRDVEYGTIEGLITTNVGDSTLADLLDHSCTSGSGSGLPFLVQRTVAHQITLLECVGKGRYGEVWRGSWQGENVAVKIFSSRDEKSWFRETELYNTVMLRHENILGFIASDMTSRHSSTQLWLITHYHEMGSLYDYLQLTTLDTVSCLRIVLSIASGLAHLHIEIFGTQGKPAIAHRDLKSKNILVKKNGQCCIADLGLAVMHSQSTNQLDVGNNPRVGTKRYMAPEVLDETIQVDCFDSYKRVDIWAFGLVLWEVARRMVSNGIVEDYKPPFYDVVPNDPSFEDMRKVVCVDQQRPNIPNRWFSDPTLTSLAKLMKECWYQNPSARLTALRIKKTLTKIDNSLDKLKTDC
As to the kind of experiment: ALK binding assay (LANTHASCREEN TR-FRET competitive binding, displacement of Kinase Tracer 178). The conditions noted are these: read-out: Binding Assay (IC50 class). How it is done: Example 10 ALK Binding Assays
Binding assays were conducted using the LANTHASCREEN® technology (ThermoFisher Scientific). LANTHASCREEN® is a competitive binding, displacement assay where the assumed steady state occupancy of the binding site is measured using a time-resolved, fluorescence energy transfer (TR-FRET) readout between a fluorescent tracer and Europium (Eu)-tagged antibody specific for the kinase or expression tag (e.g., GST) of interest. Displacement of the tracer by a compound of the disclosure reduces, and is directly proportional to, the TR-FRET between the tracer and the antibody. Tracer was used at a concentration equal to or near to its Kd for the kinase. The Eu-tagged antibody was typically used in excess to ensure sampling of all competent protein capable of binding the tracer.
For these assays, a mutant ALK2 was used that was N-terminally tagged with GST (ALK2R206H Carna Bioscience (09-148) or ALK2R206H ThermoFisher (PV6232)); a Eu-tagged anti-GST antibody (ThermoFisher) and Kinase Tracer 178 (ThermoFisher).
In all cases, the kinase (2-5 nM) was mixed with Eu-tagged antibody (4-10 nM) mix and tracer (50 nM) were incubated with test compound titrations prepared in 100% DMSO (1% DMSO final) for 30 minutes at room temperature. All reagents and compounds were dissolved in Kinase Buffer A (ThermoFisher) to achieve the final concentration. The plates were read on a PerkinElmer EnVision® multilabel plate reader or a BioTek Synergy Neo plate reader, and the assay signal was represented as a ratio of the TR-FRET emission (λex 330 nm, λ^em […] and λ^em 665 nm). This readout was normalized to 0% and 100% inhibited control wells, plotted against inhibitor concentration, and fitted to a 4-parameter log dose response curve.
The results of this assay are shown in Table 3 in the column labelled “Binding Assay” wherein “A” represents an IC50 of less than or equal to 10 nM; “B” represents an IC50 of greater than 10 nM and less than or equal to 50 nM; and “C” represents an IC50 of greater than 50 nM. Blank values in the table indicate that the particular compound was not tested in this assay.
On to `COCC(C)OC(=O)N1CCN(c2ccnc3[nH]c(-c4cnn(C)c4)cc23)CC1` (stereo not shown) [Compound 165], for which the IC50 was in the range of 10 to 50 nM.

Turning to `Cn1cc(-c2cc3c(N4CCN(C(=O)OCCOC5CCCCC5)CC4)ccnc3[nH]2)cn1` [Compound 405], the IC50 was at most 10 nM.

On to `Cc1ccc(-c2cc3c(N4CCN(C(=O)C5CC5)CC4)ccnc3[nH]2)c(F)c1` [Compound 63], for which the IC50 fell in the range of 10 to 50 nM.

In the case of `CC(C)c1[nH]ncc1-c1cc2c(N3CCN(C(=O)OC4COC4)CC3)ccnc2[nH]1` [Compound 239], the IC50 was above 50 nM.

Regarding `Cc1nsc(-c2cc3c(N4CCN(C(=O)OC5COC5)CC4)ccnc3[nH]2)n1` [Compound 182], the IC50 is 10 to 50 nM.

In the case of `CC(C)(O)Cn1cc(-c2cc3c(N4CCN(C(=O)C5CC5)CC4)ccnc3[nH]2)cn1` [Compound 222], the IC50 was at most 10 nM.

Turning to `CC(C)(C)OC(=O)NC1(c2ccc(-c3cc4c(N5CCN(C(=O)C6CC6)CC5)ccnc4[nH]3)cc2)CC1` [Compound 463], the IC50 was at most 10 nM.

For `N#Cc1csc(-c2cc3c(N4CCN(C(=O)OC5COC5)CC4)ccnc3[nH]2)n1` [Compound 230], the IC50 was at most 10 nM.

For the compound `CCc1c(-c2cnn(C)c2)[nH]c2nccc(N3CCN(C(=O)OC4COC4)CC3)c12` [Compound 237], the IC50 was at most 10 nM.

As for `O=C(C1CC1)N1CCN(c2ccnc3[nH]c(-c4ccc(Cl)cc4)cc23)CC1` [Compound 84], the 50% inhibitory concentration (IC50) was 10 to 50 nM.

`COCCCOC(=O)N1CCN(c2ccnc3[nH]c(-c4cnn(C)c4)cc23)CC1` [Compound 163]: the IC50 was at most 10 nM.

In the case of `CC(C)C(=O)N1CCN(c2ccnc3[nH]c(-c4cnn(C)c4)cc23)CC1` [Compound 10], the IC50 was in the range of 10 to 50 nM.

For the compound `CCOC(=O)N1CCN(c2ccnc3[nH]c(-c4cnc(C)nc4)cc23)CC1` [Compound 31], the IC50 fell in the range of 10 to 50 nM.

For the compound `CCOC(=O)N1CCN(c2ccnc3[nH]c(-c4ccc(C5(OC)CCOCC5)cn4)cc23)CC1` [Compound 430], the IC50 is at most 10 nM.

Take `O=C(OC1COC1)N1CCN(c2ccnc3[nH]c(-c4ncc(C(F)(F)F)s4)cc23)CC1` [Compound 409]: the IC50 was at most 10 nM.

Turning to `Cn1cc(-c2cc3c(N4CCN(C(=O)OCC5CCC5)CC4)ccnc3[nH]2)cn1` [Compound 143], the IC50 is at most 10 nM.

As to `O=C(C1CC1)N1CCN(c2ccnc3[nH]c(-c4ccc(Oc5ccccc5)cc4)cc23)CC1` [Compound 361], the IC50 lay within 10 to 50 nM.

On to `Cc1ccc(-c2cc3c(N4CCN(C(=O)C5CC5)CC4)ccnc3[nH]2)cc1` [Compound 16], for which the IC50 is 10 to 50 nM.

Turning to `CCCOc1ccc(-c2cc3c(N4CCN(C(=O)C5CC5)CC4)ccnc3[nH]2)cc1` [Compound 196], the IC50 fell in the range of 10 to 50 nM.

Turning to `Cn1cc(-c2cc3c(N4CCN(C(=O)OCC5(C)CC5)CC4)ccnc3[nH]2)cn1` [Compound 142], the IC50 is at most 10 nM.

Consider `Cn1cc(-c2cc3c(N4CCN(C(=O)[C@H]5CC[C@@H](O)CC5)CC4)ccnc3[nH]2)cn1` [Compound 223], for which the IC50 was in the range of 10 to 50 nM.

Take `Cn1cc(-c2cc3c(N4CCN(C(=O)C5CCC5)CC4)ccnc3[nH]2)cn1` [Compound 20]: the IC50 is at most 10 nM.

`COc1cnc(-c2cc3c(N4CCN(C(=O)OC5COC5)CC4)ccnc3[nH]2)c(C#N)c1` [Compound 346]: the half-inhibitory concentration (IC50) was at most 10 nM.

With `Cn1cc(-c2cc3c(N4CCN(C(=O)[C@@H]5CCCO5)CC4)ccnc3[nH]2)cn1` [Compound 81], the IC50 was 10 to 50 nM.

`O=C(OC1COC1)N1CCN(c2ccnc3[nH]c(-c4nc(C(F)(F)F)cs4)cc23)CC1` [Compound 410, oxetan-3-yl 4-(2-(4-(trifluoromethyl)thiazol-2-yl)-1H-pyrrolo[2,3-b]pyridin-4-yl)piperazine-1-carboxylate]: the IC50 is 10 to 50 nM.

For the compound `CCOC(=O)N1CCN(c2ccnc3[nH]c(-c4cnn(C)c4COC)cc23)CC1` [Compound 166], the IC50 was 10 to 50 nM.

For `Cn1cc(-c2cc3c(N4CCN(C(=O)OCCS(C)(=O)=O)CC4)ccnc3[nH]2)cn1` [Compound 338], the IC50 fell in the range of 10 to 50 nM.

For the compound `Cn1cc(-c2cc3c(N4CCN(C(=O)CC#N)CC4)ccnc3[nH]2)cn1` [Compound 5], the IC50 was in the range of 10 to 50 nM.

With `Cn1cc(-c2[nH]c3nccc(N4CCN(C(=O)OC5COC5)CC4)c3c2C2CC2)cn1` [Compound 293], the half-maximal inhibitory concentration (IC50) was at most 10 nM.

On to `Cn1cnc(-c2cc3c(N4CCN(C(=O)OC5COC5)CC4)ccnc3[nH]2)n1` [Compound 106], for which the IC50 is 10 to 50 nM.

In the case of `Cn1cc(-c2cc3c(N4CCN(C(=O)OC5COC5)CC4)ccnc3[nH]2)c(C#N)n1` [Compound 209], the IC50 was at most 10 nM.

Turning to `Cn1cc(-c2cc3c(N4CCN(C(=O)OCCC(C)(C)C)CC4)ccnc3[nH]2)cn1` [Compound 240], the IC50 was in the range of 10 to 50 nM.

With `O=C(C1CC1)N1CCN(c2ccnc3[nH]c(-c4ccc(C5CC5)cc4)cc23)CC1` [Compound 119], the IC50 is above 50 nM.

As for `Cn1cc(-c2cc3c(N4CCN(C(=O)[C@@H]5CCOC5)CC4)ccnc3[nH]2)cn1` [Compound 79], the IC50 is at most 10 nM.

For `O=C(OC1COC1)N1CCN(c2ccnc3[nH]c(-c4nc5c(s4)COCC5)c(Cl)c23)CC1` [Compound 443], the IC50 was at most 10 nM.

With `Cc1c(-c2cc3c(N4CCN(C(=O)OC5COC5)CC4)ccnc3[nH]2)cnn1C` [Compound 156], the IC50 was at most 10 nM.

Consider `N#Cc1ncc(-c2cc3c(N4CCN(C(=O)OC5COC5)CC4)ccnc3[nH]2)s1` [Compound 229], for which the IC50 is at most 10 nM.

On to `Cc1nc(-c2cc3c(N4CCN(C(=O)OC5CSC5)CC4)ccnc3[nH]2)cs1` [Compound 261], for which the concentration for half-maximal inhibition (IC50) is at most 10 nM.

In the case of `Cc1nc(-c2cc3c(N4CCN(C(=O)O[C@H]5CCC5(F)F)CC4)ccnc3[nH]2)cn1C` [Compound 327], the IC50 was at most 10 nM.

As to `COC1(c2ccc(-c3cc4c(N5CCN(C(=O)OC6COC6)CC5)ccnc4[nH]3)nc2)CCOCC1` [Compound 457], the IC50 was at most 10 nM.

Consider `CCOCC(C)OC(=O)N1CCN(c2ccnc3[nH]c(-c4cnn(C)c4)cc23)CC1` (stereo not shown) [Compound 246], for which the IC50 is at most 10 nM.

As for `COc1ccc(-c2cc3c(N4CCN(C(=O)C5CC5)CC4)ccnc3[nH]2)cn1` [Compound 62], the IC50 was 10 to 50 nM.

In the case of `CCOC(=O)N1CCN(c2ccnc3[nH]c(-c4cnn(C)c4)c(CC)c23)CC1` [Compound 99], the IC50 was at most 10 nM.

With `Cn1cc(-c2cc3c(N4CCN(C(=O)[C@H]5C[C@H](F)C5)CC4)ccnc3[nH]2)cn1` [Compound 94], the IC50 is at most 10 nM.

As for `Cn1cnc(-c2cc3c(N4CCN(C(=O)O[C@H]5CC(F)(F)C5(F)F)CC4)ccnc3[nH]2)c1` [Compound 402], the IC50 was at most 10 nM.

Regarding `Cc1nc(-c2cc3c(N4CCN(C(=O)OC5COC5)CC4)ccnc3[nH]2)oc1C` [Compound 158], the IC50 is at most 10 nM.

Regarding `Cc1ccc(-c2cc3c(N4CCN(C(=O)OC5COC5)CC4)ccnc3[nH]2)s1` [Compound 168], the IC50 is at most 10 nM.

In the case of `CCOC(=O)N1CCN(c2ccnc3[nH]c(-c4ncc(C#N)cn4)cc23)CC1` [Compound 61], the IC50 was at most 10 nM.

For the compound `Cc1ncc(-c2[nH]c3nccc(N4CCN(C(=O)OC5COC5)CC4)c3c2C#N)o1` [Compound 217], the IC50 is at most 10 nM.

In the case of `O=C(C1CC1)N1CCN(c2ccnc3[nH]c(-c4ccc(F)cc4F)cc23)CC1` [Compound 87], the IC50 was 10 to 50 nM.

As for `O=C(C1CC1)N1CCN(c2ccnc3[nH]c(-c4ccc(C(F)(F)F)cc4Cl)cc23)CC1` [Compound 393], the 50% inhibitory concentration (IC50) is above 50 nM.

On to `O=C(C1CC1)N1CCN(c2ccnc3[nH]c(-c4ccccc4)cc23)CC1` [Compound 3], for which the IC50 was in the range of 10 to 50 nM.

Regarding `Cn1cc(-c2cc3c(N4CCN(C(=O)OCCC5CC5)CC4)ccnc3[nH]2)cn1` [Compound 141], the IC50 was at most 10 nM.

With `O=C(OC1COC1)N1CCN(c2ccnc3[nH]c(-c4cn[nH]c4)cc23)CC1` [Compound 36], the IC50 was at most 10 nM.

In the case of `Cn1cc(C#N)c(-c2cc3c(N4CCN(C(=O)OC5COC5)CC4)ccnc3[nH]2)n1` [Compound 211], the IC50 was above 50 nM.

For orientation: IC50 means the midpoint of a concentration-inhibition curve.
